Measured values as given in patent US20050202505A1, “Method to identify modulators for human 3alpha-hydroxysteroid dehydrogenase” (priority 2001, published 2005).

Experiments:
3a-HSD type III = target: T1, 3a-HSD type III (Homo sapiens, UniProt P52895); assay: NMR screening of fragment library; type: binding
T1 construct: Full length type III 3a-HSD cDNA is amplified by RT-PCR from human fetal brain total RNA; made in house; host or cells: E. coli BL21 (DE3)
T1 sequence (P52895 1-323): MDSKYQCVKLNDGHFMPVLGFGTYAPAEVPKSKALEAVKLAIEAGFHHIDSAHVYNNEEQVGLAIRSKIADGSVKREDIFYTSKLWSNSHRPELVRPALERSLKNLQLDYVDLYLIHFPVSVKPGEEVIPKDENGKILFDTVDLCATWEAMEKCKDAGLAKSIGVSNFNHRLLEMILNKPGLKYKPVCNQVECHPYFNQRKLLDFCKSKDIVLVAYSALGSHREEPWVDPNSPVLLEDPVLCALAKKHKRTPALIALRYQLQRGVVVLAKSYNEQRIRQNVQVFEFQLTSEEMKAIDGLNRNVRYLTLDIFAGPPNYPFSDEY
From the text: NMR spectroscopy can be used to discover and design inhibitors of 3a-HSD type III. This is due to the well-known ability of NMR to detect interactions between ligands and a target protein, even if the interactions are only weak and have affinities in the millimolar range (Diercks, T.; Coles, M.; Kessler, H. Applications of NMR in drug discovery. Curr. Opin. Chem. Biol. 2001, 5, 285-291; Hajduk, P. J.; Meadows, R. P.; Fesik, S. W. NMR-based screening in drug discovery. Q. Rev. Biophys. 1999, 32, 211-240; Pellecchia, M.; Sem, D. S.; Wuthrich, K. NMR in drug discovery. Nature Reviews Drug Discovery 2002, 1, 211-219). For this purpose, a solution of 3a-HSD is added to a mixture of compounds, and NMR properties of the compounds, such as their relaxation rates, are measured and compared in the presence and absence of 3a-HSD. […] This effect can be enhanced by about a factor of 15 if side chains of 3a-HSD are spin-labeled with paramagnetic centers such as TEMPO (2,2,6,6-Tetramethylpiperidin-N-oxyl) or PROXYL (2,2,5,5-Tetramethylpyrrolidine-N-oxyl) (Jahnke, W.; Ruedisser, S.; Zurini, M. Spin Label Enhanced NMR Screening. J. Am. Chem. Soc. 2001, 123, 3149-3150; Jahnke, W. Spin labels as a tool to identify and characterize protein—ligand interactions by NMR spectroscopy. ChemBioChem 2002, 3, 167-173). […]

[1] = target: T2, recombinant type-3 human 3a-HSD (Homo sapiens, UniProt P52895); assay: functional in vitro assay, oxidation of 3H-ALLO to 3H-5α-DHP; type: biochemical; settings: NADP+, pH 7.4, 37° C., read-out: Ki OX
T2 construct: Full length type III 3a-HSD cDNA is amplified by RT-PCR from human fetal brain total RNA; made in house; host or cells: E. coli BL21 (DE3)
T2 sequence (P52895 1-323): T1 sequence (P52895 1-323)
From the text: (§1) Materials: Steroid standards (>98% purity) were purchased from Sigma Chemical Co. ^3H-allopregnanolone (64 Ci/mmol, [9, 11, 12-^3H(N)]-allopregnanolone, herein after referred to as ^3H-ALLO) was purchased from New England Nuclear. ^3H-5α-dihydroprogesterone (^3H-5α-DHP) was synthesized in our lab using an enzymatic conversion of ^3H-ALLO to ^3H-5α-DHP by the 3a-HSD (see Enzymatic reactions). The oxidation product ^3H-5α-DHP was isolated and purified by semi-preparative HPLC and confirmed by GC/MS. All solvents were of analytical grade (Merck) and were used without further purification.
(§2) Enzymatic reactions (oxidation of ^3H-ALLO to ^3H-5α-DHP and reduction of ^3H-5α-DHP to ^3H-ALLO): All enzymatic reactions were performed using pure recombinant type-3 human 3a-HSD expressed in E. coli and refolded and purified from bacterial inclusion bodies. ^3H-5a-DHP reduction was conducted in 100 μl reaction systems containing 100 mM sodium phosphate (pH 7.4), 4 μg of recombinant enzyme, 2 mM NADPH and 2.5 μM ^3H-5α-DHP (40 000 cpm) in 4% acetonitrile. Similarly, ^3H-ALLO oxidation was conducted in 100 μl reaction systems containing 100 mM sodium phosphate (pH 7.4), 4 μg of recombinant enzyme, 2 mM NADP^+ and 2.5 μM ^3H-ALLO (40 000 cpm) in 4% acetonitrile. Reactions were initiated by the addition of the respective substrate and were incubated at 37° C. for 25 min. […]

[2] = maximum achievable concentration in aqueous NMR sample with co-solvents; type: physicochemical; settings: water with 2% DMSO-d6 and 5% ethanol as co-solvents
Method: (§3) Even then, the maximum achievable concentration of allo-pregnanolone is only about 20 μM. […] Based on the NMR analysis, 3a-HSD appears well-folded and functional in respect to cofactor- and ligand-binding.

3a-HSD = target: T3, 3a-HSD (Homo sapiens, UniProt P52895); assay: NMR ligand binding (line broadening of ligand resonances in the presence of protein); settings: ligand resonances in the presence of 3a-HSD
T3 construct: Full length type III 3a-HSD cDNA is amplified by RT-PCR from human fetal brain total RNA; made in house; host or cells: E. coli BL21 (DE3)
T3 sequence (P52895 1-323): T1 sequence (P52895 1-323)
From the text: Binding of natural ligands is a prerequisite for functionality. One method to detect ligand binding by NMR takes advantage of the increased transverse relaxation rates of the ligand protons when the ligand is bound. Increased line widths in the presence of protein thus indicates binding. Binding experiments of NADP to 3a-HSD are done and check by NMR. In the presence of 3a-HSD, the NADP peaks are broadened so much that they are hardly visible in the spectrum.
as §3

[3] = substrate: CC(=O)[C@H]1CC[C@H]2[C@@H]3CC[C@H]4C[C@H](O)CC[C@]4(C)[C@H]3CC[C@]12C; assay: functional in vitro assay, oxidation of 3H-ALLO to 3H-5α-DHP; type: biochemical; settings: other: oxidation of ALLO by the type-3 human 3a-HSD; pH 7.4; 37.0 °C
From the text: as §1, §2

For `CC(=O)c1cc2ccccc2o1` [2-acetylbenzofuran], the “binding to 3a-HSD” value (3a-HSD type III; NMR screening hit) was “only weakly”, the dissociation rate (3a-HSD type III; observed by NMR, severe line broadening) was “so slow” and the Ki [1] was ~132 µM.

In the case of `CC(=O)[C@H]1CC[C@H]2[C@@H]3CC[C@H]4C[C@H](O)CC[C@]4(C)[C@H]3CC[C@]12C` [allopregnanolone, 3α-hydroxy-5a-pregnan-20-one], the maximum achievable concentration [2] is reported as “about 20 μM” and the “binding to 3a-HSD detected by NMR line broadening” value (3a-HSD) is reported as “proven”.

With `NC(=O)c1ccc[n+]([C@@H]2O[C@H](COP(=O)([O-])OP(=O)(O)OC[C@H]3O[C@@H](n4cnc5c(N)ncnc54)[C@H](OP(=O)(O)O)[C@@H]3O)[C@@H](O)[C@H]2O)c1` [NADP] the “binding to 3a-HSD detected by NMR line broadening” value (3a-HSD) was “proves binding”.

B1: recombinant type-3 human 3a-HSD (Homo sapiens) (protein)
chain: T1 sequence (P52895 1-323)
Molecule B1 has a Km [3] of 4.9 µM.
